This experiment deals with modified version of the GPR119 receptor (94% identity to human receptor). Description: cAMP production assay (LANCE cAMP kit, TR-FRET) in HEK-293 cells. To be noted: for cAMP production in HEK-293 cells: HEK-293 cells stably expressing modified GPR119, test compounds 0.2 nM to 10 μM, one-hour incubation at ambient temperature; for Fold over baseline: increase in cAMP relative to basal levels, agonist activity if 1.5-fold or greater. It counts as cell-based. In a few lines: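 Doxycycline-induced (1 μg/mL, overnight) HEK-293 cells expressing modified GPR119 were thawed, 2000 cells/well, and exposed to compounds (0.2 nM-10 μM final, 0.5% DMSO) for 1 h at ambient temperature in HBSS/HEPES/BSA. cAMP was measured by LANCE TR-FRET against a standard curve. Agonism was defined as ≥1.5-fold over basal.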

For the molecule `CS(=O)(=O)c1cc(F)c(N[C@H]2CCCN(C3CCN(c4cnc(Cl)cn4)CC3)C2=O)cc1F` [Example 57, (S)-1′-(5-chloropyrazin-2-yl)-3-(2,5-difluoro-4-(methylsulfonyl)phenylamino)-[1,4′-bipiperidin]-2-one], the “cAMP production in HEK-293 cells” value worked out at 22.8 nmol and the Fold over baseline amounted to 3.3.
`CCc1cnc(N2CCC(N3CCC[C@H](Nc4cc(C)c(S(C)(=O)=O)cc4F)C3=O)CC2)nc1` [Example 58, (S)-1′-(5-ethylpyrimidin-2-yl)-3-(2-fluoro-5-methyl-4-(methylsulfonyl)phenylamino)-[1,4′-bipiperidin]-2-one]: the “cAMP production in HEK-293 cells” value was 13.2 nmol and the Fold over baseline is listed as 2.4.
Regarding `CCc1cnc(N2CCC(N3CCC[C@H](Nc4cc(F)c(S(C)(=O)=O)cc4F)C3=O)CC2)cn1` [Example 59, (S)-3-(2,5-difluoro-4-(methylsulfonyl)phenylamino)-1′-(5-ethylpyrazin-2-yl)-[1,4′-bipiperidin]-2-one], the “cAMP production in HEK-293 cells” value worked out at 22.6 nmol and the Fold over baseline amounted to 3.4.
As for `CC(C)c1cnc(N2CCC(N3CCC[C@H](Nc4cc(F)c(S(C)(=O)=O)cc4F)C3=O)CC2)cn1` [Example 60, (S)-3-(2,5-difluoro-4-(methylsulfonyl)phenylamino)-1′-(5-isopropylpyrazin-2-yl)-[1,4′-bipiperidin]-2-one], the “cAMP production in HEK-293 cells” value is 27.4 nmol and the Fold over baseline is listed as 4.4.
As to `Cc1ccccc1-c1cnc(N2CCC(N3CCC[C@H](Nc4cc(F)c(S(C)(=O)=O)cc4F)C3=O)CC2)cn1` [Example 61, (S)-3-(2,5-difluoro-4-(methylsulfonyl)phenylamino)-1′-(5-o-tolylpyrazin-2-yl)-[1,4′-bipiperidin]-2-one], the “cAMP production in HEK-293 cells” value stood at 19.6 nmol and the Fold over baseline came out at 3.1.
In the case of `CCc1cnc(N2CCC(N3CCCC(Nc4ccc(S(C)(=O)=O)cc4F)C3=O)CC2)nc1` (stereo not shown) [Example 62, 1′-(5-ethylpyrimidin-2-yl)-3-(2-fluoro-4-(methylsulfonyl)phenylamino)-[1,4′-bipiperidin]-2-one], the “cAMP production in HEK-293 cells” value came out at 9.8 nmol and the Fold over baseline turned out to be 2.9.
For the molecule `CCc1cnc(N2CCC(N3CCCC(Nc4ccc(S(C)(=O)=O)c(F)c4)C3=O)CC2)nc1` (stereo not shown) [Example 63, 1′-(5-ethylpyrimidin-2-yl)-3-(3-fluoro-4-(methylsulfonyl)phenylamino)-[1,4′-bipiperidin]-2-one], the “cAMP production in HEK-293 cells” value is 16.2 nmol and the Fold over baseline is reported as 3.4.
For the molecule `CC(O)c1cnc(N2CCC(N3CCC[C@H](Nc4cc(F)c(S(C)(=O)=O)cc4F)C3=O)CC2)nc1` (stereo partly drawn) [Example 64, (3S)-3-(2,5-difluoro-4-(methylsulfonyl)phenylamino)-1′-(5-(1-hydroxyethyl)pyrimidin-2-yl)-[1,4′-bipiperidin]-2-one], the “cAMP production in HEK-293 cells” value worked out at 7.4 nmol and the Fold over baseline is listed as 2.0.
Consider `CS(=O)(=O)c1cc(F)c(N[C@H]2CCCN(C3CCN(c4cnc(Cl)cn4)CC3)C2=O)c(F)c1` [Example 65, (S)-1′-(5-chloropyrazin-2-yl)-3-(2,6-difluoro-4-(methylsulfonyl)phenylamino)-[1,4′-bipiperidin]-2-one], for which the “cAMP production in HEK-293 cells” value worked out at 21.0 nmol and the Fold over baseline was 3.4.
As to `CCc1cnc(N2CCC(N3CCC(Oc4ccc(-n5cnnn5)nc4)C3=O)CC2)nc1` (stereo not shown) [Example 66, 3-(6-(1H-tetrazol-1-yl)pyridin-3-yloxy)-1-(1-(5-ethylpyrimidin-2-yl)piperidin-4-yl)pyrrolidin-2-one], the “cAMP production in HEK-293 cells” value was determined as 4.9 nmol and the Fold over baseline worked out at 1.6.
Turning to `O=C1C(Oc2ccc(-n3cnnn3)nc2)CCN1C1CCN(c2cnc(Cl)cn2)CC1` (stereo not shown) [Example 67, 3-(6-(1H-tetrazol-1-yl)pyridin-3-yloxy)-1-(1-(5-chloropyrazin-2-yl)piperidin-4-yl)pyrrolidin-2-one], the “cAMP production in HEK-293 cells” value worked out at 15.6 nmol and the Fold over baseline is listed as 2.9.
For `CCc1cnc(N2CCC(N3CCC(Oc4ccc(-c5nnn(C)n5)cc4)C3=O)CC2)nc1` (stereo not shown) [Example 68, 1-(1-(5-ethylpyrimidin-2-yl)piperidin-4-yl)-3-(4-(2-methyl-2H-tetrazol-5-yl)phenoxy)pyrrolidin-2-one], the “cAMP production in HEK-293 cells” value is 8.8 nmol and the Fold over baseline is recorded as 1.9.
Regarding `CS(=O)(=O)c1ccc(O[C@H]2CCN(C3CCN(c4cnc(Cl)cn4)CC3)C2=O)cn1` [Example 69, (S)-1-(1-(5-chloropyrazin-2-yl)piperidin-4-yl)-3-(6-(methylsulfonyl)pyridin-3-yloxy)pyrrolidin-2-one], the “cAMP production in HEK-293 cells” value was determined as 21.3 nmol and the Fold over baseline came out at 3.2.
The like results for `CCc1cnc(N2CCC(N3CC[C@H](Oc4ccc(-n5nnnc5C)cc4)C3=O)CC2)nc1` [Example 70, (S)-1-(1-(5-ethylpyrimidin-2-yl)piperidin-4-yl)-3-(4-(5-methyl-1H-tetrazol-1-yl)phenoxy)pyrrolidin-2-one] were, in that order, 6.1 nmol and 1.8.
On to `Cc1nnc(-c2ccc(O[C@H]3CCN(C4CCN(c5cnc(Cl)cn5)CC4)C3=O)c(F)c2)o1` [Example 71, (S)-1-(1-(5-chloropyrazin-2-yl)piperidin-4-yl)-3-(2-fluoro-4-(5-methyl-1,3,4-oxadiazol-2-yl)phenoxy)pyrrolidin-2-one], for which the “cAMP production in HEK-293 cells” value worked out at 17.6 nmol and the Fold over baseline is recorded as 5.6.
Regarding `Cc1nnc(-c2ccc(O[C@H]3CCN(C4CCN(c5ncc(Cl)cn5)CC4)C3=O)c(F)c2)o1` [Example 72, (S)-1-(1-(5-chloropyrimidin-2-yl)piperidin-4-yl)-3-(2-fluoro-4-(5-methyl-1,3,4-oxadiazol-2-yl)Phenoxy)pyrrolidin-2-one], the “cAMP production in HEK-293 cells” value was found to be 7.5 nmol and the Fold over baseline is 2.8.
Take `CCc1cnc(N2CCC(N3CCC[C@H](Nc4cc5c(cc4F)S(=O)(=O)CC5)C3=O)CC2)nc1` [Example 73, (S)-1′-(5-ethylpyrimidin-2-yl)-3-((6-fluoro-1,1-dioxido-2,3-dihydrobenzo[b]thiophen-5-yl)amino)-[1,4′-bipiperidin]-2-one]: the “cAMP production in HEK-293 cells” value turned out to be 14.4 nmol and the Fold over baseline is 3.0.
As for `O=C1[C@@H](Oc2ccc3[nH]ncc3c2)CCN1C1CCN(c2cnc(Cl)cn2)CC1` [Example 74, (S)-3-(1H-indazol-5-yloxy)-1-(1-(5-chloropyrazin-2-yl)piperidin-4-yl)pyrrolidin-2-one], the “cAMP production in HEK-293 cells” value was determined as 8.6 nmol and the Fold over baseline was 2.2.
For `O=C1[C@@H](Nc2ncc(C(F)(F)F)cc2Cl)CCCN1C1CCN(c2cnc(Cl)cn2)CC1` [Example 75, (S)-3-(3-chloro-5-(trifluoromethyl)pyridin-2-ylamino)-1′-(5-chloropyrazin-2-yl)-[1,4′-bipiperidin]-2-one], the “cAMP production in HEK-293 cells” value was 9.1 nmol and the Fold over baseline turned out to be 2.5.
Regarding `CCc1cnc(N2CCC(N3CCC[C@H](Nc4ncc(C(F)(F)F)cc4Cl)C3=O)CC2)nc1` [Example 76, (S)-3-(3-chloro-5-(trifluoromethyl)pyridin-2-ylamino)-1′-(5-ethylpyrimidin-2-yl)-[1,4′-bipiperidin]-2-one], the “cAMP production in HEK-293 cells” value worked out at 5.9 nmol and the Fold over baseline was determined as 1.9.
In the case of `CCc1cnc(N2CCC(N3CCCC(Nc4ccc(S(C)(=O)=O)cc4F)C3=O)CC2)c(C)c1` (stereo not shown) [Example 77, 1′-(5-ethyl-3-methylpyridin-2-yl)-3-(2-fluoro-4-(methylsulfonyl)phenylamino)-[1,4′-bipiperidin]-2-one], the “cAMP production in HEK-293 cells” value came out at 21.3 nmol and the Fold over baseline stood at 2.5.
For the molecule `CCc1cnc(N2CCC(N3CCC[C@H](N(C)c4cc(F)c(S(C)(=O)=O)cc4F)C3=O)CC2)nc1` [Example 78, (S)-3-((2,5-difluoro-4-(methylsulfonyl)phenyl)(methyl)amino)-1′-(5-ethylpyrimidin-2-yl)-[1,4′-bipiperidin]-2-one], the “cAMP production in HEK-293 cells” value was determined as 13.6 nmol and the Fold over baseline is listed as 3.4.
Turning to `CCc1cnc(N2CCC(N3CCCC[C@H](Nc4ccc(S(C)(=O)=O)cc4F)C3=O)CC2)nc1.Cl` [Example 79], the “cAMP production in HEK-293 cells” value was determined as 18.0 nmol and the Fold over baseline is 3.8.
For `CS(=O)(=O)c1ccc(N[C@H]2CCCCN(C3CCN(c4cnc(Cl)cn4)CC3)C2=O)c(F)c1.Cl` [Example 80, (S)-1-(1-(5-chloropyrazin-2-yl)piperidin-4-yl)-3-(2-fluoro-4-(methylsulfonyl)phenylamino)azepan-2-one hydrochloride], the “cAMP production in HEK-293 cells” value is 18.3 nmol and the Fold over baseline was 3.7.
The like results for `CS(=O)(=O)c1cc(F)c(N[C@H]2CCCCN(C3CCN(c4cnc(Cl)cn4)CC3)C2=O)cc1F.Cl` [Example 81, (S)-1-(1-(5-chloropyrazin-2-yl)piperidin-4-yl)-3-(2,5-difluoro-4-(methylsulfonyl)phenylamino)azepan-2-one hydrochloride] were, in that order, 22.7 nmol and 5.0.
As for `CCc1cnc(N2CCC(N3CCCC[C@H](Nc4cc(F)c(S(C)(=O)=O)cc4F)C3=O)CC2)nc1.Cl` [Example 82, (S)-3-(2,5-difluoro-4-(methylsulfonyl)phenylamino)-1-(1-(5-ethylpyrimidin-2-yl)piperidin-4-yl)azepan-2-one hydrochloride], the “cAMP production in HEK-293 cells” value was determined as 18.5 nmol and the Fold over baseline is reported as 4.0.

The record behind these values is patent US8754226B2, “Piperidinyl-substituted lactams as GPR119 modulators” (Array BioPharma Inc., priority 2010, dated 2014).
